# Target: HCV RdRp (NS5B) (UniProt P26663)
# Type: biochemical, hepatitis C virus
# Chain of HCV RdRp (NS5B) (P26663 whole entry, looked up): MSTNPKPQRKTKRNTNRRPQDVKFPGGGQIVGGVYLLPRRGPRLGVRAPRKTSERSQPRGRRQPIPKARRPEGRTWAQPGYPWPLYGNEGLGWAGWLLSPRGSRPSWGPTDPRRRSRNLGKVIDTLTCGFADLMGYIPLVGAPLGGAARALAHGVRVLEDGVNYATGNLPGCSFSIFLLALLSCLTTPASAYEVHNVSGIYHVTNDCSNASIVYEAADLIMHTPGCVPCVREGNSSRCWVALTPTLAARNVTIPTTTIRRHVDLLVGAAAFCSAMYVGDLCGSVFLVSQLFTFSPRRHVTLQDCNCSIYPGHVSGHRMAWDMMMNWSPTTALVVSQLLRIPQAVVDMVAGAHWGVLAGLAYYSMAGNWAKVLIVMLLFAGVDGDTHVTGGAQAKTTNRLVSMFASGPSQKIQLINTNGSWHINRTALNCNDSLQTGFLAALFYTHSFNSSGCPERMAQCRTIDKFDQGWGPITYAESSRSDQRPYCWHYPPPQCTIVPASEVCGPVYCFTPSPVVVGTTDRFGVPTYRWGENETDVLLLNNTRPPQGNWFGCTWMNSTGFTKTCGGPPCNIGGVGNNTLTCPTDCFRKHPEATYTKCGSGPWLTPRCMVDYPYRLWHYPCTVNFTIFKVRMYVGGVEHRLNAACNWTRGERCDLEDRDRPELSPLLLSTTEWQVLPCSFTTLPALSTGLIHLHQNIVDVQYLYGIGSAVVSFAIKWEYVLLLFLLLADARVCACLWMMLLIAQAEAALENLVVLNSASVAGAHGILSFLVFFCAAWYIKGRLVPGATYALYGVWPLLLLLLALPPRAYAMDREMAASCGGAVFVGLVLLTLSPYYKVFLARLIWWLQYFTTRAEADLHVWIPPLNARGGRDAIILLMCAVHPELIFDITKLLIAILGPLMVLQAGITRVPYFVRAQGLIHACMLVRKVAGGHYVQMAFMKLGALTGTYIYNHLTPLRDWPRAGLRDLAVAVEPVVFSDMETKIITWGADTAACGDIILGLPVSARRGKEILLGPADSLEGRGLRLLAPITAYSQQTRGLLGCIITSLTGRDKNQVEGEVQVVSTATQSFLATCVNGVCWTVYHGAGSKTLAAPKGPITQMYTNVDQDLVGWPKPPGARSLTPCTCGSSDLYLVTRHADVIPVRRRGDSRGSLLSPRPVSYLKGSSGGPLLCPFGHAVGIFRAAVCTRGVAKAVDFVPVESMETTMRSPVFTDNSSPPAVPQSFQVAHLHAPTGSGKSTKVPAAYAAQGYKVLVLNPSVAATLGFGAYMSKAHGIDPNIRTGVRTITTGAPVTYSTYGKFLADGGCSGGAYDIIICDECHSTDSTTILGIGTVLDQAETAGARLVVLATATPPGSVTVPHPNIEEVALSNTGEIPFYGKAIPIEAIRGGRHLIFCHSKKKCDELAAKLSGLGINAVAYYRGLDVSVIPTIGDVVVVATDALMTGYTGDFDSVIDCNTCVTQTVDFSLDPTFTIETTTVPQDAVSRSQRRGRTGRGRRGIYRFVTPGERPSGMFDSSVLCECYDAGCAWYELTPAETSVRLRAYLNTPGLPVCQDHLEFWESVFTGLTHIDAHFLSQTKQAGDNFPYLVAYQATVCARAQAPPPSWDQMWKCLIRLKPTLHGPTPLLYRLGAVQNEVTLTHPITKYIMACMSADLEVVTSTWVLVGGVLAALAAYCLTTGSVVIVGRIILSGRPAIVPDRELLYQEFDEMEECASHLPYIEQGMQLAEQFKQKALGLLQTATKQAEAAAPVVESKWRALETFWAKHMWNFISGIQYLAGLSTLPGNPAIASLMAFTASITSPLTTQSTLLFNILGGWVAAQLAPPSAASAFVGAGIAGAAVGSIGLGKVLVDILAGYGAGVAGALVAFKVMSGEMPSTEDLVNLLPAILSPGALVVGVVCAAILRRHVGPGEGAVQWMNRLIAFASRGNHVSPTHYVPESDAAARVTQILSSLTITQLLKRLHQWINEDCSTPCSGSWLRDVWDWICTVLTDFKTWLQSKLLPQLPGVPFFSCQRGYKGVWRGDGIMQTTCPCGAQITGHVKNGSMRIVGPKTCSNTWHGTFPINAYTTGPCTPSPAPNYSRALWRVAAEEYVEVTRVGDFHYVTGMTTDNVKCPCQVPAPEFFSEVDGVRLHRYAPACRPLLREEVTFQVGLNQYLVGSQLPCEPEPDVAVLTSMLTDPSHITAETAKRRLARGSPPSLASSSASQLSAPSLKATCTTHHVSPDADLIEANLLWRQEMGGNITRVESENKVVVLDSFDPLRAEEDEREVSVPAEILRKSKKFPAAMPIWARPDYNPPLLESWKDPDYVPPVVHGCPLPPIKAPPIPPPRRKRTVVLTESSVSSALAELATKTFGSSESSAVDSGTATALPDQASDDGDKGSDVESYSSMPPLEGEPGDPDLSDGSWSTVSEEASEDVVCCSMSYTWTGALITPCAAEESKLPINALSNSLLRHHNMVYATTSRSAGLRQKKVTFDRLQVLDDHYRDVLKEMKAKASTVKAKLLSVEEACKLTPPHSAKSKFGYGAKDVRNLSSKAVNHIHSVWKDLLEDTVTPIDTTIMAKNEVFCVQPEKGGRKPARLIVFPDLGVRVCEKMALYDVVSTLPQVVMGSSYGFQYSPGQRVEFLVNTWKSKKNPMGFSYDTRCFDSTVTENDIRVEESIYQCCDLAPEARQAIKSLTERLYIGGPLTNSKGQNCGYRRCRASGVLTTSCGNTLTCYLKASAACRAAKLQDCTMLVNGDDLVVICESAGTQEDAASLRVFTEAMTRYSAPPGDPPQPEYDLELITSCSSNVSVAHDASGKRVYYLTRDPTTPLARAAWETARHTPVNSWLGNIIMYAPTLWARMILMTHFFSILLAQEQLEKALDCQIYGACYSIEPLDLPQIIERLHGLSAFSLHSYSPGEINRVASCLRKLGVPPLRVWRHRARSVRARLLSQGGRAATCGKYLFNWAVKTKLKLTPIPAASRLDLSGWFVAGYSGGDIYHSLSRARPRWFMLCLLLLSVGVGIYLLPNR
row,Structure (SMILES),IC50 [µM]
1,"COC(=O)C(Cc1c[nH]c2ccccc12)NC(=O)[C@H](CCCCN)NC(=O)OCC1c2ccccc2-c2ccccc21 (mixture of isomers) [Compound 55, (+/−)-2-[6-AMINO-2-(S)-((9H-FLUOREN-9-YLMETHOXYCARBONYL)AMINO)-HEXANOYL-AMINO]-3-(1H-INDOL-3-YL)-PROPIONIC ACID METHYL ESTER]",> 50
2,"O=C(Nc1ccc(C2CCCCC2)cc1)C1CNCCN1C(=O)OCC1c2ccccc2-c2ccccc21 (racemic) [Compound 156, (+/−)-2-(4-CYCLOHEXYL-PHENYLCARBAMOYL)-PIPERAZINE-1-CARBOXYLIC ACID 9H-FLUOREN-9-YLMETHYL ESTER]",> 50
3,"Cc1ccc(NC(=O)CC2CN(C(=O)CN)CCN2C(=O)OCC2c3ccccc3-c3ccccc32)cc1 (racemic) [Compound 182, (+/−)-4-(2-AMINO-ACETYL)-2-(P-TOLYLCARBAMOYL-METHYL)-PIPERAZINE-1-CARBOXYLIC ACID 9H-FLUOREN-9-YLMETHYL ESTER]",> 50
4,"Cc1ccc(NC(=O)C2CN(C(=O)CN)CCN2C(=O)Nc2ccc(OCc3ccccc3)cc2)cc1 (racemic) [Compound 308, (±)-4-(2-AMINO-ACETYL)-PIPERAZINE-1,2-DICARBOXYLIC ACID 1-[(4-BENZYLOXY-PHENYL)-AMIDE]2-P-TOLYLAMIDE]",> 50
5,"NC(Cc1ccccc1)C(=O)Nc1ccc(CN(C(=O)c2ccco2)C2CCCCC2)cc1 (stereo in doubt) [Compound 11, (R)-FURAN-2-CARBOXYLIC ACID [4-(2-AMINO-3-PHENYL-PROPIONYLAMINO)-BENZYL]-CYCLOHEXYL-AMIDE]",> 50
6,"NCCCCC(NC(=O)OCC1c2ccccc2-c2ccccc21)C(=O)Nc1ccccc1 (stereo in doubt) [Compound 19, (S)-(5-AMINO-1-PHENYLCARBAMOYL-PENTYL)-CARBAMIC ACID 9H-FLUOREN-9-YLMETHYL ESTER]",> 50
7,"NCCCCC(NC(=O)OCC1c2ccccc2-c2ccccc21)C(=O)NCc1ccccc1 (stereo in doubt) [Compound 21, (S)-(5-AMINO-1-BENZYLCARBAMOYL-PENTYL)-CARBAMIC ACID 9H-FLUOREN-9-YLMETHYL ESTER]",> 50
8,"NCCCCC(NC(=O)OCC1c2ccccc2-c2ccccc21)C(=O)NC1CCCCC1 (stereo in doubt) [Compound 22, (S)-(5-AMINO-1-CYCLOHEXYLCARBAMOYL-PENTYL)-CARBAMIC ACID 9H-FLUOREN-9-YLMETHYL ESTER]",10 to 50
9,"NCCCCC(NC(=O)Cc1cccc2ccccc12)C(=O)Nc1ccc(CN(C(=O)c2ccco2)C2CCCCC2)cc1 (stereo in doubt) [Compound 25, (S)-FURAN-2-CARBOXYLIC ACID {4-[6-AMINO-2-(2-NAPHTHALEN-1-YL-ACETYLAMINO)-HEXANOYLAMINO]-BENZYL}-CYCLOHEXYL-AMIDE]",10 to 50
10,"COC(=O)c1ccc(C(=O)NC(C)(C)C(=O)Nc2ccc(CN(C(=O)c3ccco3)C3CCCCC3)cc2)cc1 [Compound 3, N-[1-(4-{[CYCLOHEXYL-(FURAN-2-CARBONYL)-AMINO]-METHYL}-PHENYLCARBAMOYL)-1-METHYL-ETHYL]-TERE[…] METHYL ESTER]",> 50
11,"CC(C)(NC(=O)c1ccc(C(=O)O)cc1)C(=O)Nc1ccc(CN(C(=O)c2ccco2)C2CCCCC2)cc1 [Compound 4, N-[1-(4-{[CYCLOHEXYL-(FURAN-2-CARBONYL)-AMINO]-METHYL}-PHENYLCARBAMOYL)-1-METHYL-ETHYL]-TERE[…]]",> 50
12,"C=CCOC(=O)NCCCC[C@H](N)C(=O)Nc1ccc(CN(C(=O)c2ccco2)C2CCCCC2)cc1 [Compound 5, (S)-[5-AMINO-5-(4-{[CYCLOHEXYL-(FURAN-2-CARBONYL)-AMINO]-METHYL}-PHENYLCARBAMOYL)-PENTYL]-CARBAMIC ACID ALLYL ESTER]",> 50
13,"NCCCC[C@H](NC(=O)OCC1c2ccccc2-c2ccccc21)C(=O)Nc1ccc(CN(C(=O)c2ccco2)C2CCCCC2)cc1 [Compound 6, (S)-[5-AMINO-1-(4-{[CYCLOHEXYL-(FURAN-2-CARBONYL)-AMINO]-METHYL}-PHENYLCARBAMOYL)-PENTYL]-CARBAMIC ACID 9H-FLUOREN-9-YL METHYL ESTER]",< 10
14,"NCCCC[C@H](N)C(=O)Nc1ccc(CN(C(=O)c2ccco2)C2CCCCC2)cc1 [Compound 7, (S)-FURAN-2-CARBOXYLIC ACID CYCLOHEXYL-[4-(2,6-DIAMINO-HEXANOYLAMINO)-BENZYL]-AMIDE]",> 50
15,"CC(C)(C)Oc1ccc(C[C@H](N)C(=O)Nc2ccc(CN(C(=O)c3ccco3)C3CCCCC3)cc2)cc1 [Compound 8, (S)-FURAN-2-CARBOXYLIC ACID {4-[2-AMINO-3-(4-TERT-BUTOXY-PHENYL)-PROPIONYLAMINO]-BENZYL}-CYCLOHEXYL-AMIDE]",> 50
16,"COc1ccc(C[C@H](N)C(=O)Nc2ccc(CN(C(=O)c3ccco3)C3CCCCC3)cc2)cc1 [Compound 9, (S)-FURAN-2-CARBOXYLIC ACID {4-[2-AMINO-3-(4-METHOXY-PHENYL)-PROPIONYLAMINO]-BENZYL}-CYCLOHEXYL-AMIDE]",> 50
17,"N[C@@H](Cc1ccccc1)C(=O)Nc1ccc(CN(C(=O)c2ccco2)C2CCCCC2)cc1 [Compound 10, (S)-FURAN-2-CARBOXYLIC ACID [4-(2-AMINO-3-PHENYL-PROPIONYLAMINO) -BENZYL]-CYCLOHEXYL-AMIDE]",> 50
18,"C[C@H](N)C(=O)Nc1ccc(CN(C(=O)c2ccco2)C2CCCCC2)cc1 [Compound 12, (S)-FURAN-2-CARBOXYLIC ACID [4-(2-AMINO-PROPIONYLAMINO)-BENZYL]-CYCLOHEXYL-AMIDE]",> 50
19,"C[C@@H](N)C(=O)Nc1ccc(CN(C(=O)c2ccco2)C2CCCCC2)cc1 [Compound 13, (R)-FURAN-2-CARBOXYLIC ACID [4-(2-AMINO-PROPIONYLAMINO)-BENZYL]-CYCLOHEXYL-AMIDE]",> 50
20,"N[C@@H](CCNC(=O)OCC1c2ccccc2-c2ccccc21)C(=O)Nc1ccc(CN(C(=O)c2ccco2)C2CCCCC2)cc1 [Compound 14, (S)-[3-AMINO-3-(4-{[CYCLOHEXYL-(FURAN-2-CARBONYL)-AMINO]-METHYL}-PHENYLCARBAMOYL)-PROPYL]-CARBAMIC ACID 9H-FLUOREN-9-YLMETHYL ESTER]",10 to 50
21,"NCCC[C@H](NC(=O)OCC1c2ccccc2-c2ccccc21)C(=O)Nc1ccc(CN(C(=O)c2ccco2)C2CCCCC2)cc1 [Compound 15, (S)-[4-AMINO-1-(4-{[CYCLOHEXYL-(FURAN-2-CARBONYL)-AMINO]-METHYL}-PHENYLCARBAMOYL)-BUTYL]-CARBAMIC ACID 9H-FLUOREN-9-YLMETHYL ESTER]",10 to 50
22,"NCCC[C@@H](NC(=O)OCC1c2ccccc2-c2ccccc21)C(=O)Nc1ccc(CN(C(=O)c2ccco2)C2CCCCC2)cc1 [Compound 16, (R)-[4-AMINO-1-(4-{[CYCLOHEXYL-(FURAN-2-CARBONYL)-AMINO]-METHYL}-PHENYLCARBAMOYL)-BUTYL]-CARBAMIC ACID 9H-FLUOREN-9-YLMETHYL ESTER]",< 10
23,"N[C@@H](CNC(=O)OCC1c2ccccc2-c2ccccc21)C(=O)Nc1ccc(CN(C(=O)c2ccco2)C2CCCCC2)cc1 [Compound 17, (S)-[2-AMINO-2-(4-{[CYCLOHEXYL-(FURAN-2-CARBONYL)-AMINO]-METHYL}-PHENYLCARBAMOYL)-ETHYL]-CARBAMIC ACID 9H-FLUOREN-9-YLMETHYL ESTER]",10 to 50
24,"O=C(CNC(=O)OCC1c2ccccc2-c2ccccc21)Nc1ccc(CN(C(=O)c2ccco2)C2CCCCC2)cc1 [Compound 18, [(4-{[CYCLOHEXYL-(FURAN-2-CARBONYL)-AMINO]-METHYL}-PHENYLCARBAMOYL)-METHYL]-CARBAMIC ACID 9H-FLUOREN-9-YLMETHYL ESTER]",> 50

# Reference: patent US20070021434A1, “NON-NUCLEOSIDE ANTI-HEPACIVIRUS AGENTS AND USES THEREOF” (Migenix Inc., priority 2005, published 2007)
